# Active and inactive are the calls of the source. The rule behind the calls is not given here.
# Legend:
# [1] = molecular target: T1, Beta-1 adrenergic receptor (Cavia porcellus, UniProt B0FL73); test: In vitro ability to block beta-1 adrenergic receptor in guinea pig right atria.; settings: read-out: pA2 (converted)
# [2] = molecular target: Beta-2 adrenergic receptor (Cavia porcellus); test: The compound was tested in vitro for its ability to block beta-2-adrenergic receptor in guinea pig trachea; settings: read-out: pA2 (converted)
# [3] = molecular target: Beta-1 adrenergic receptor (Cavia porcellus) (UniProt B0FL73); test: The compound was tested in vivo for its ability to block Beta-1 adrenergic receptor in guinea pig right atria at a duration of 3h; assay type: functional, organism-based
# Chain of Beta-1 adrenergic receptor (Cavia porcellus) (B0FL73 1-467): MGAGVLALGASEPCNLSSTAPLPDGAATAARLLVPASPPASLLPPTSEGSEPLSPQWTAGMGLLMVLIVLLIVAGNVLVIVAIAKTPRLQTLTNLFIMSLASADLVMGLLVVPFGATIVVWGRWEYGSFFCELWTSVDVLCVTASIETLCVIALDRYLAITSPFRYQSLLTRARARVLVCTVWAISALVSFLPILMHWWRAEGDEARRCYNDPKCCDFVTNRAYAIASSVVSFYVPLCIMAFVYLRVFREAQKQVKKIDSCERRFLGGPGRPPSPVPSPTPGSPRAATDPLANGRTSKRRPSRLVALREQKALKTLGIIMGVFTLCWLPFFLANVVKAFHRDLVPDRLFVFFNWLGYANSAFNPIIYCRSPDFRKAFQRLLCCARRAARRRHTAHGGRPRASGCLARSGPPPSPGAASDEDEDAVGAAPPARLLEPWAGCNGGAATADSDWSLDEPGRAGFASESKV
# [4] = molecular target: Beta-1 adrenergic receptor (Cavia porcellus) (UniProt B0FL73); test: In vivo inhibition of Beta-1 adrenergic receptor in guinea pig right atria after 40 min; assay type: functional, organism-based
# [5] = molecular target: Beta-2 adrenergic receptor (Cavia porcellus, UniProt Q8K4Z4); test: In vitro ability to block beta-2 adrenergic receptor in guinea pig trachea.; assay type: tissue-based; settings: read-out: pA2 (converted)
# Chain of Beta-2 adrenergic receptor (Q8K4Z4 whole entry): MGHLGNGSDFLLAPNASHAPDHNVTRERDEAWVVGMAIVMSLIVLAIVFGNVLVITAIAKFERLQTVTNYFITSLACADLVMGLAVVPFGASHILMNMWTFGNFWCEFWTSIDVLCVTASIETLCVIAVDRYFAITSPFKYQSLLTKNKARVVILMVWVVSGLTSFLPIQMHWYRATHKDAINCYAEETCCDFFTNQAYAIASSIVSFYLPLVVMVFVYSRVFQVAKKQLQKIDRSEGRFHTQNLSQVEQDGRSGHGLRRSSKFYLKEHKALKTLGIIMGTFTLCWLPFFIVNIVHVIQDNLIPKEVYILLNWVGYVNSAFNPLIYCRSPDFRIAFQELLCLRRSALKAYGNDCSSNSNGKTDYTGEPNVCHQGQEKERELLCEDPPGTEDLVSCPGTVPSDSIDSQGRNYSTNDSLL
# [6] = Cardioselectivity expressed as antilog of pA2 (atria)-pA2 (trachea).
# [7] = molecular target: T1, Beta-1 adrenergic receptor; test: The compound was tested in vitro for its ability to block Beta-1 adrenergic receptor n guinea pig trachea; assay type: tissue-based; settings: read-out: pA2 (converted)
# [8] = molecular target: T1, Beta-1 adrenergic receptor; test: The compound was tested in vitro for its ability to block Beta-1 adrenergic receptor in guinea pig right atria; settings: read-out: pA2 (converted)
# [9] = molecular target: Beta-1 adrenergic receptor (Cavia porcellus) (UniProt B0FL73)
# Description: The compound was tested in vivo for its ability to block Beta-1 adrenergic receptor in guinea pig right atria at a duration of 40 min
# [10] = molecular target: Beta-1 adrenergic receptor (Cavia porcellus) (UniProt B0FL73); test: The compound was tested in vitro for its ability to block Beta-1 adrenergic receptor in guinea pig right atria; Inactive at 10E-5 M
# [11] = molecular target: Beta-2 adrenergic receptor (Cavia porcellus) (UniProt Q8K4Z4); test: The compound was tested in vitro for its ability to block Beta-2 adrenergic receptor in guinea pig trachea; Inactive at 10E-5 M; assay type: tissue-based
# Chain of Beta-2 adrenergic receptor (Cavia porcellus) (UniProt Q8K4Z4) (Q8K4Z4 whole entry, looked up): as the sequence (Q8K4Z4 whole entry) above
# [12] = molecular target: Beta-1 adrenergic receptor (Cavia porcellus) (UniProt B0FL73); test: The compound was tested in vivo for its ability to block […] adrenergic receptor n guinea pig right atria at a duration of 3h; assay type: organism-based
# T1 sequence (B0FL73 whole entry): as the sequence (B0FL73 1-467) above
Compound,Kb [1] [nM],Kb [5] [nM],other results
COc1ccc(CCOC(=O)CCNCC(O)COc2ccccc2)cc1OC (stereo not given),100,–,Kb [2]: 251 nM
CCOC(=O)CCNCC(O)COc1ccccc1Cl (stereo not given),–,–,In vivo duration [3]: > 60 min
CCOC(=O)c1cccc(NCC(O)COc2ccccc2C)c1 (stereo not given),6310,–,–
CC(C)CNCC(O)COc1ccccc1 (stereo not given),10,39.8,Cardio selectivity [6]: 5
CCOC(=O)CCNCC(O)COc1cccc2ccccc12 (stereo not given),39.8,50.1,In vivo duration [4]: 17 min
CCOC(=O)CCNCC(O)COc1ccc(OC)cc1 (stereo not given),1580,–,–
CCOC(=O)CCNCC(O)COc1cccc(C)c1 (stereo not given),200,–,–
O=C(CCNCC(O)COc1ccccc1)Oc1ccc(F)cc1 (stereo not given),–,–,Kb [8]: 2000 nM
NC(=O)CNCC(O)COc1cccc2ccccc12 (stereo not given),631,631,–
CCOC(=O)CCNCC(O)COc1cccc(Cl)c1 (stereo not given),–,–,In vivo duration [3]: > 60 min
CCOC(=O)CCNCC(O)COc1c(C)cccc1C (stereo not given),–,1000,Kb [8]: 794 nM
CCOC(=O)CCCNCC(O)COc1ccccc1C (stereo not given),–,–,In vivo duration [4]: 15 min; In vivo duration [3]: > 60 min
CC(C)CNCC(O)COc1cccc2ccccc12 (stereo not given),2,1.26,In vivo duration [4]: 46 min; In vivo duration [3]: > 60 min
CCOC(=O)CCNCC(O)COc1ccccc1 (stereo not given),–,–,In vivo duration [9]: 29 min
O=C(CCNCC(O)COc1ccccc1)OCC(F)(F)F (stereo not given),2000,–,–
NCC(O)COc1cccc2ccccc12 (stereo not given),316,501,–
O=C1CCC(=O)N1CC(O)COc1ccccc1 (stereo not given),–,–,pA2 [10]: inactive
O=C(O)CNCC(O)COc1ccccc1 (stereo not given),–,–,pA2 [11]: inactive; pA2 [10]: inactive
O=C(CCNCC(O)COc1ccccc1)Oc1ccccc1 (stereo not given),–,–,In vivo duration [12]: > 60 min; Kb [8]: 398 nM
NCC(O)COc1ccccc1 (stereo not given),126,1260,Cardio selectivity [6]: 10
CCOC(=O)CCNCC(O)COc1ccc(Cl)cc1 (stereo not given),–,–,pA2 [10]: inactive
CCOC(=O)CCNCC(O)COc1cccc(OC)c1 (stereo not given),398,–,–
CCOC(=O)CNCC(O)COc1cccc2ccccc12 (stereo not given),–,–,In vivo duration [4]: 53 min
O=C1CCCN1CC(O)COc1ccccc1 (stereo not given),–,–,pA2 [11]: inactive; pA2 [10]: inactive

# The next lines start with results.
Kb [1] [nM],Kb [5] [nM],Compound,other results
7940,–,CCOC(=O)c1ccc(NCC(O)COc2ccccc2C)cc1 (stereo not given),–
15.8,–,CCOC(=O)CCCCNCC(O)COc1ccccc1C (stereo not given),In vivo duration [4]: 20 min
251,–,CCOC(=O)c1ccc(CNCC(O)COc2ccccc2C)cc1 (stereo not given),Kb [7]: 1260 nM; Cardio selectivity [6]: 5
3160,2000,COC(=O)CNCC(O)COc1ccccc1C (stereo not given),–
1260,–,CCOC(=O)C(NCC(O)COc1ccccc1C)C(=O)OCC (stereo not given),–
31.6,–,CCOC(=O)CCNCC(O)COc1ccccc1C (stereo not given),In vivo duration [4]: 14 min
3.16,7.94,CCOC(=O)CC(C)(C)NCC(O)COc1ccccc1C (stereo not given),In vivo duration [3]: > 60 min
31.6,–,COC(=O)CCNCC(O)COc1ccccc1C (stereo not given),–
–,100,COC(=O)CCNCC(O)COc1cccc2ccccc12 (stereo not given),–
2.51,6.31,Cc1ccccc1OCC(O)CNCC(C)C (stereo not given),–
1260,–,CCOC(=O)CNCC(O)COc1ccccc1C (stereo not given),–

# Source: ChEMBL document CHEMBL1122202, “Ultra-short-acting beta-adrenergic receptor blocking agents. 1. (Aryloxy)propanolamines containing esters in the nitrogen substituent” (J Med Chem, 1982)
